Assay results: patent US20250066737A1, “METHOD FOR ESTABLISHING LUNG CANCER CELL MODEL HAVING VASCULAR TUBES, PLATFORM FOR LUNG CANCER MEDICINE SCREENING AND METHOD FOR USING THEREOF” (National Cheng Kung University Hospital, priority 2023, published 2025)

What was measured:
H1299-EGFRwt cell model [1] = assay: 3D-VM vasculature disruption, H1299-EGFRwt cell model; assay type: cell-based; conditions: foslinanib 62.5 nM
Method: (§1) The assessment of in vitro vasculogenic mimicry (VM) capabilities of cancer cells was conducted utilizing the Matrigel tube formation assay. Chamber slides (TruLive3D Dishes, Burker) were prepared by applying a 100 μl layer of growth factor-reduced Matrigel (Corning) and subsequently allowing for gel solidification over a 30-minute period at 37° C. […] This preparation was then incubated for an additional 30 minutes at 37° C. within a CO2 incubator. […]
(§2) The quantification of tube or lumen formation of 3D-VM vasculature was conducted utilizing an analytical approach on at least eight distinct areas of interest (AOIs), among which three AOIs were specified as representative sections of images. […] First, the AOI was identified and quantified. Following this, the mean ROI was calculated by aggregating the ROIs for all eight AOIs (area 1+ area 2+ . . . area 8) and dividing this sum by eight, thereby deriving an average area that reflects the typical dimensions of the regions analyzed in each individual lung cancer cell model. […]
(§3) The entire quantification process was facilitated by employing the Angiogenesis Analyzer for ImageJ.

[2] = tested on: H1650 lung cancer cell model; assay: 3D-VM vasculature disruption, H1650 lung cancer cell model (real-time LSFM, lumen quantification); assay type: cell-based
Method: The assessment of in vitro vasculogenic mimicry (VM) capabilities of cancer cells was conducted utilizing the Matrigel tube formation assay. Chamber slides (TruLive3D Dishes, Burker) were prepared by applying a 100 μl layer of growth factor-reduced Matrigel (Corning) and subsequently allowing for gel solidification over a 30-minute period at 37° C. Following solidification, a cell suspension prepared in culture media at a concentration of 1.25×10^5 cells per 150 μl was evenly distributed over the gel surface. This preparation was then incubated for an additional 30 minutes at 37° C. within a CO2 incubator. After this initial incubation period, an overlay of 1× Matrigel mixed with culture medium was applied directly to the cells, so as to obtain a pre-cell model (10), and followed by further incubation at 37° C. for 5 to 24 hours so that a lung cancer cell model (100) was obtained for subsequent 3D-VM observation.
The quantification of tube or lumen formation of 3D-VM vasculature was conducted utilizing an analytical approach on at least eight distinct areas of interest (AOIs), among which three AOIs were specified as representative sections of images. The region of interest (ROI) indicates a delineated patent tube or hollow lumen within each tested cell. First, the AOI was identified and quantified. Following this, the mean ROI was calculated by aggregating the ROIs for all eight AOIs (area 1+ area 2+ . . . area 8) and dividing this sum by eight, thereby deriving an average area that reflects the typical dimensions of the regions analyzed in each individual lung cancer cell model. Finally, the standard average was ascertained by dividing the mean ROI by the mean total tube average. This ratio provides a standardized metric, enabling the effective comparison of anti-3D-VM vasculature efficiency across varying experimental setups or among different cell lines; the formula is as follows: […]
as §3

H1299 cell model [3] = assay: Cell viability, H1299 cell model; assay type: cell-based; conditions: H1299, high concentration (beyond 250 nM)
Method: (§4) Cell viability was determined using an MTT assay.

H1299-EGFRmt cell model [4] = assay: Cell viability, H1299-EGFRmt cell model; assay type: cell-based
Method: as §4

LAMC2 = assay: Western blot, LAMC2 in H1299, H1299-EGFRwt and H1299-EGFRmt cell models; assay type: cell-based; conditions: across the examined cell lines
Method: (§7) Cells were seeded at a density of 2×10^6 cells in a 6 cm culture dish for protein sample preparation. […] After centrifugation, the cell lysate samples were boiled with 6X sample buffer for 10 minutes. The cell lysate protein samples were separated by SDS-PAGE and transferred to polyvinylidene difluoride (PVDF) membranes (Millipore). The membranes were then blocked with 5% skim milk (HIMEDIA) dissolved in Tris-buffered saline Tween (TBST) buffer for 1 hour, followed by three 10-minute washes with TBST. […] Subsequently, the membranes were incubated with the appropriate secondary antibodies for 1 hour at room temperature. Protein expressions were visualized using Western Lightning Plus ECL (PerkinElmer), detected by the iBright FL1000 imaging system, and analyzed using ImageJ software.

H1299-EGFRwt cell model [5] = assay: 2D-VM networks inhibition assay via high-content imaging, H1299-EGFRwt; assay type: cell-based; conditions: high concentration (beyond 31.25 nM)
Method: (§5) Cells to be tested were plated in 96-well plates (manufactured by Greiner) and allowed to adhere overnight under standard culture conditions. Following attachment, the cells to be tested were exposed to various concentrations of anti-VM compound foslinanib (ABEx BIO-Research Center). The treatment's efficacy, specifically its ability to inhibit VM vasculature, was monitored time-dependent. The assessment of 2D-VM network disruption was conducted using the ImageXpressR Micro Confocal High-Content Imaging System (Molecular Devices LLC). This advanced imaging technology facilitates high-resolution visualization of cell morphology and tubular networks. Analysis of the imaging data was performed using MetaXpress software, allowing for quantitative measurement of 2D-VM network inhibition. This methodological approach provides a robust framework for evaluating the potential of anti-VM compounds.

[6] = Cell viability (MTT assay), HCC827; assay type: cell-based; conditions: human, HCC827 cells; HCC827, 62.5 nM
Method: as §4

H1299-EGFRmt cell model [7] = assay: 2D-VM networks inhibition assay via high-content imaging, H1299-EGFRmt; assay type: cell-based; conditions: any concentration beyond 31.25 nM
Method: as §5

[8] = tested on: various tumor xenograft models; conditions: cited from earlier work
H1299 cell model [9] = assay: 2D-VM networks inhibition assay via high-content imaging, H1299; assay type: cell-based; conditions: H1299, compared with H1299-EGFRmt cell model
Method: as §5

H1299-EGFRmt cell model [10] = assay: 3D-VM vasculature disruption, H1299-EGFRmt cell model; assay type: cell-based
Method: (§6) The assessment of in vitro vasculogenic mimicry (VM) capabilities of cancer cells was conducted utilizing the Matrigel tube formation assay. Chamber slides (TruLive3D Dishes, Burker) were prepared by applying a 100 μl layer of growth factor-reduced Matrigel (Corning) and subsequently allowing for gel solidification over a 30-minute period at 37° C. Following solidification, a cell suspension prepared in culture media at a concentration of 1.25×10^5 cells per 150 μl was evenly distributed over the gel surface. This preparation was then incubated for an additional 30 minutes at 37° C. within a CO2 incubator. […]
as §2, §3

H1650 cells = assay: Cell viability (MTT assay), H1650; assay type: cell-based; conditions: H1650 lung cancer cell model, various foslinanib concentrations
Method: as §4

[11] = tested on: HCC827 lung cancer cell model; assay: 3D-VM vasculature disruption, HCC827 lung cancer cell model (real-time LSFM, lumen quantification); assay type: cell-based; conditions: HCC827, 500 nM, 24-hour incubation
Method: as §6, §2, §3

[12] = tested on: H1299-EGFRwt and H1299-EGFRmt cell models; assay: 3D-VM vasculature under single use of osimertinib (cell model not given); assay type: cell-based
Method: as §1, §2, §3

H1299-EGFRwt cell model [13] = conditions: osimertinib
Method: Cell viability was determined using an MTT assay. Cells were plated at a density of 4×10^3 cells/well within 96-well plates. These cells were then exposed to various concentrations of anti-vasculogenic mimicry (anti-VM) compounds across different time points: 0, 24, 48, and 72 hours. Following the treatment period, the MTT reagent (sourced from Sigma) was added to each well, and the cells were incubated at 37° C. for 2 hours. Subsequently, the plates were centrifuged at 1500 rpm for 10 minutes to facilitate the removal of the supernatant. The resultant formazan crystals were dissolved using dimethyl sulfoxide (DMSO), and the absorbance of the solution, indicative of cell viability, was measured at a wavelength of 492 nm using an ELISA plate reader.

phosphorylated EGFR = conditions: Western blot, H1299, H1299-EGFRwt, H1299-EGFRmt cell models
Method: as §7

COc1ccc2[nH]c(-c3cccc(F)c3)cc(=O)c2c1OP(=O)(O)O [foslinanib]
effect on 3D-VM vasculature (H1299-EGFRwt cell model [1]): disruptive effect | disruption of VM lumens ([2]; H1650, 62.5 nM): disruption of VM lumens | inhibition of 3D-VM vasculature ([2]; H1650, 250 nM and 500 nM): significant inhibition | lumen area ([2]; H1650, 250 nM and 500 nM): significantly reduced | cell viability (H1299 cell model [3]): suppressed | cell viability (H1299-EGFRmt cell model [4]; H1299-EGFRmt, 31.25 nM (range 7.8125 nM to 500 nM)): significant decrease | LAMC2 protein levels (LAMC2): significant decrease | inhibitory effect on the formation of a 2D-VM network (H1299-EGFRwt cell model [5]): rather insignificant | viability at 0.0625 µM [6]: 70% | 2D total network area (H1299-EGFRmt cell model [7]): decreasing trend | 2D total network length (H1299-EGFRmt cell model [7]): decreasing trend | anti-tumor efficacy [8]: robust anti-tumor efficacy | 2D total network area (H1299 cell model [9]): less effective inhibition | 2D total network length (H1299 cell model [9]): less effective inhibition | disruption of 3D-VM vasculature (quantitative analysis) (H1299-EGFRmt cell model [10]): significant | cell toxicity against H1650 cells (H1650 cells): no significant cell toxicity | lumen area [11]: significant reduction

C=CC(=O)Nc1cc(Nc2nccc(-c3cn(C)c4ccccc34)n2)c(OC)cc1N(C)CCN(C)C [osimertinib]
3D-VM vasculature (quantitative analysis) ([12]; after osimertinib treatment): significantly disrupted | formation of 3D-VM vasculature (3D imaging) ([12]; osimertinib): did not impact | cytotoxic effects (H1299-EGFRmt cell model [4]; H1299mt cell model, osimertinib): cytotoxic effects | cytotoxic effects (H1299-EGFRwt cell model [13]): cytotoxic effects | levels of phosphorylated EGFR (phosphorylated EGFR): markedly reduced
